Experimental data as given in ChEMBL document CHEMBL4842384 (J Med Chem, 2021).
Values after ≈ are worked out from the molar mass of the structure shown.

Assays:
[1] = Aqueous solubility of compound at pH 6.5; format: physicochemical; settings: buffer
[2] = Permeability of compound at pH 7.4 by PAMPA assay; format: ADME; settings: for Papp: read-out: permeability
[3] = Aqueous solubility of compound at pH 1; format: physicochemical; settings: buffer
[4] = Cmax in C57BL6 mouse at 30 mg/kg, po; format: ADME, organism-based; parameters: route oral, dose 30 mg/kg; settings: in vivo
[5] = AUC in C57BL6 mouse at 30 mg/kg, po; format: ADME, organism-based; parameters: dose 30 mg/kg; settings: in vivo
[6] = Permeability of compound at pH 5.5 by PAMPA assay; format: ADME; settings: for Papp: read-out: permeability
[7] = Oral bioavailability in C57BL6 mouse at 30 mg/kg; format: ADME, organism-based; settings: in vivo
[8] = Aqueous solubility of compound at pH 7.4; format: physicochemical; settings: buffer

**Q.** Which results are given for `COc1ccc(NC(=O)C2=C(c3ccc(C)cc3)C[C@](c3ccc(OCCCC(F)(F)F)cc3)(C(F)(F)F)NC2=O)cc1`?
**A.** solubility [1]: < 1 µg/mL; permeability [2]: Nd(Insoluble); solubility [3]: < 1 µg/mL; Cmax [4]: 0.16 µM; AUC [5]: 1.1 µM·h; permeability [6]: Nd(Insoluble); bioavailability [7]: 15%

**Q.** For `Cc1ccc(C2=C(c3nnn[nH]3)C(=O)N[C@@](c3ccc(OCCCCCC(F)(F)F)cc3)(C(F)(F)F)C2)cc1`, which solubility [1] is on record?
**A.** 332 µg/mL (≈ 600 µM)

**Q.** And the Papp [2]?
**A.** 34.1 ×10⁻⁶ cm/s

**Q.** And the solubility [3]?
**A.** 1 µg/mL (≈ 1.81 µM)

**Q.** And the solubility [8]?
**A.** 1130 µg/mL (≈ 2050 µM)

**Q.** What about the Cmax [4] of the same compound?
**A.** 4.3 µM

**Q.** And the AUC [5]?
**A.** 22 µM·h

**Q.** What about the Papp [6] of the same compound?
**A.** 46.6 ×10⁻⁶ cm/s

**Q.** What about the bioavailability [7] of the same compound?
**A.** 88%

**Q.** With `Cc1ccc(C2=C(c3nnn[nH]3)C(=O)N[C@@](c3ccc(OCCCC(F)(F)F)cc3)(C(F)(F)F)C2)cc1` [BMS-963272] as the compound, how does the solubility [1] read?
**A.** 1180 µg/mL (≈ 2240 µM)

**Q.** And the Papp [2]?
**A.** 17.9 ×10⁻⁶ cm/s

**Q.** And the solubility [3]?
**A.** 11 µg/mL (≈ 20.9 µM)

**Q.** And the solubility [8]?
**A.** > 2450 µg/mL

**Q.** What about the Cmax [4] of the same compound?
**A.** 11 µM

**Q.** And the AUC [5]?
**A.** 93 µM·h

**Q.** What about the Papp [6] of the same compound?
**A.** 47.9 ×10⁻⁶ cm/s

**Q.** And the bioavailability [7]?
**A.** 50%
